Read-outs that look alike come from different tables or passages of the source.

As usually defined, the IC50 is the concentration that gives 50% inhibition.

Assay [1] deals with SNU16 cells. Nature of the assay: SNU16 Cancer Cell Line Proliferation Assay (CellTiter-Glo). Format: cell-based. On the procedure:
Compounds of the present invention were also tested in a SNU16 Cancer Cell Line Proliferation Assay.
SNU16 cells were plated in 96-well clear bottom/white plate(Costar, Cat.No. 3610) at 5000 cells/well in 100 μl medium. Test compounds were prepared in a 10 mM DMSO stock solution and serially diluted into 9 concentrations by 3-fold dilution. 0.5 μl of each concentration of compound was added into the cell culture plates and DMSO as a control. The plates were incubated for 72 h at 37° C. and 5% CO2 incubator. 50 μl CellTiter-Glo reagent (Promega, G7572) was added into each well and then the plates were shaken gently for 10 min at room temperature. Luminescence was read on microplate reader (Molecular Devices, i3x), IC50 values were calculated using Prism 7 (GraphPad).
For orientation: ATP-based viability assays read luminescence as a measure of living cells.

Assay [2] concerns the target T1, FGFR3 (Homo sapiens, UniProt P22607).
T1 construct: purchased Carna 08-135
Nature of the assay: FGFR3 Biochemical Caliper Assay (KinEASE-TK kit). Conditions: ratio FGFR3/FGFR2 of the biochemical assay. On the procedure:
(§1) Compounds of the present invention were tested in a FGFR1, FGFR2, and FGFR3 Biochemical Caliper Assay. Enzyme activity was monitored using KinEASE-TK kit (CisBio, Cat.No. 62TK0PEC) according to manufacturer's instructions. […] Final enzyme concentration was 0.2 nM for FGFR1 and FGFR3, 0.07 nM for FGFR2. Compounds were prepared in 10 mM DMSO and serially diluted into 10 concentrations by 3-fold dilution. Prior to the initiation of the reaction by adding TK-substrate/ATP mixture, the compounds were incubated with protein for 10 min at RT. […] Plates were quenched by adding TK-antibody-Cryptate and Sa-XL665 mixture. After 60 min in the stop solution, read the signal on microplate reader (Molecular Devices, i3x), excitation of 320 nm and emission of 615 nm and 665 nm with a […]. IC50 values were calculated using Prism 7 (GraphPad).

The target of assay [3] is T2, FGFR2 (Homo sapiens, UniProt P21802).
T2 construct: purchased Carna 08-134
T2 sequence (P21802 22-821): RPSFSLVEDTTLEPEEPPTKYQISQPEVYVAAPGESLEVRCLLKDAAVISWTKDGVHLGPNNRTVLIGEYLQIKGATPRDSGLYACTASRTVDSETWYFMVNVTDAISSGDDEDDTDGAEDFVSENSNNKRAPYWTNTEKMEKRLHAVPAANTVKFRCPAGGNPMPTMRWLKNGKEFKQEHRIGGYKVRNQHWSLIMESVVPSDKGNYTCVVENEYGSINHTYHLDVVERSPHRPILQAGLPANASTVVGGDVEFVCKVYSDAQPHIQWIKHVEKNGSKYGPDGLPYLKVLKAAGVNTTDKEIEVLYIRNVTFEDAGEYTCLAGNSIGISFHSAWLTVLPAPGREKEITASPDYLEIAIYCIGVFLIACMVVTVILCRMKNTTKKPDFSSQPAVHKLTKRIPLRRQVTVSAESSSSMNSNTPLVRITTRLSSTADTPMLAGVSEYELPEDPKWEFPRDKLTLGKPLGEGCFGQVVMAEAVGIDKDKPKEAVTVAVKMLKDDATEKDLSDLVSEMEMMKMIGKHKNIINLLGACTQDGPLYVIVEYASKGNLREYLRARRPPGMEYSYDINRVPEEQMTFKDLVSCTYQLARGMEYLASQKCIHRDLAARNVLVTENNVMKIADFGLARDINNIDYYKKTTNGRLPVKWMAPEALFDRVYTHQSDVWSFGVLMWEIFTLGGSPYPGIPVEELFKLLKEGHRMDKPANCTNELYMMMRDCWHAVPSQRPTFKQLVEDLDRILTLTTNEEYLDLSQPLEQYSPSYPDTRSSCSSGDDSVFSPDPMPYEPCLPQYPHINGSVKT
Nature of the assay: FGFR2 Biochemical Caliper Assay (KinEASE-TK kit). The following applies: 0.07 nM FGFR2; compound incubated with protein 10 min, reaction 45 min at RT; read-out: FGFR2 Cliper IC50. The protocol:
Compounds of the present invention were tested in a FGFR1, FGFR2, and FGFR3 Biochemical Caliper Assay.
as §1, with “Enzyme” for “Compounds of the present invention were tested in a FGFR1, FGFR2, and FGFR3 Biochemical Caliper Assay. Enzyme”

Assay [4] concerns the target T3, FGFR1 (Homo sapiens, UniProt P11362).
T3 construct: purchased Carna 08-133
Kind of assay: FGFR1 Biochemical Caliper Assay (KinEASE-TK kit). The following applies: ratio FGFR1/FGFR2 of the biochemical assay. The protocol:
as §1

T1 sequence (P22607 23-806): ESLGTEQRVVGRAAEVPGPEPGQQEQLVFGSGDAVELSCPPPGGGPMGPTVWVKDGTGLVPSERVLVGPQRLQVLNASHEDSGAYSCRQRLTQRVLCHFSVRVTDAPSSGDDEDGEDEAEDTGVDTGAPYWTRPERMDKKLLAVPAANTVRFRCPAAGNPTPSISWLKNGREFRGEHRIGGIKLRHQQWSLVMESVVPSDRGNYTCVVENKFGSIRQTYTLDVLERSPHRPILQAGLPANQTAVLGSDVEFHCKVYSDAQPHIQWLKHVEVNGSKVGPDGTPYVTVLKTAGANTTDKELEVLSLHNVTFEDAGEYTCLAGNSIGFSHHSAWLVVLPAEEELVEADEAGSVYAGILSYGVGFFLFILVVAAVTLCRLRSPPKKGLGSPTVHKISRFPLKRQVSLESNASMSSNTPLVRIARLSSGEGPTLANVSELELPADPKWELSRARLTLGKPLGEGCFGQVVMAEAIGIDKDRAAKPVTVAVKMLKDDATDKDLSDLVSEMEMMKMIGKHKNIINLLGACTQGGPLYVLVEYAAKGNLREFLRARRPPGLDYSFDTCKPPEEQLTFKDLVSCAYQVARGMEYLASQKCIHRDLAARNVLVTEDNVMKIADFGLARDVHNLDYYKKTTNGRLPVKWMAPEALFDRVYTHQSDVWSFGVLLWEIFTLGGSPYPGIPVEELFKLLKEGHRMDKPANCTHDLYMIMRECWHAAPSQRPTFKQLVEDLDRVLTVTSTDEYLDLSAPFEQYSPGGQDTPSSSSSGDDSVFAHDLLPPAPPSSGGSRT
T3 sequence (P11362 22-822): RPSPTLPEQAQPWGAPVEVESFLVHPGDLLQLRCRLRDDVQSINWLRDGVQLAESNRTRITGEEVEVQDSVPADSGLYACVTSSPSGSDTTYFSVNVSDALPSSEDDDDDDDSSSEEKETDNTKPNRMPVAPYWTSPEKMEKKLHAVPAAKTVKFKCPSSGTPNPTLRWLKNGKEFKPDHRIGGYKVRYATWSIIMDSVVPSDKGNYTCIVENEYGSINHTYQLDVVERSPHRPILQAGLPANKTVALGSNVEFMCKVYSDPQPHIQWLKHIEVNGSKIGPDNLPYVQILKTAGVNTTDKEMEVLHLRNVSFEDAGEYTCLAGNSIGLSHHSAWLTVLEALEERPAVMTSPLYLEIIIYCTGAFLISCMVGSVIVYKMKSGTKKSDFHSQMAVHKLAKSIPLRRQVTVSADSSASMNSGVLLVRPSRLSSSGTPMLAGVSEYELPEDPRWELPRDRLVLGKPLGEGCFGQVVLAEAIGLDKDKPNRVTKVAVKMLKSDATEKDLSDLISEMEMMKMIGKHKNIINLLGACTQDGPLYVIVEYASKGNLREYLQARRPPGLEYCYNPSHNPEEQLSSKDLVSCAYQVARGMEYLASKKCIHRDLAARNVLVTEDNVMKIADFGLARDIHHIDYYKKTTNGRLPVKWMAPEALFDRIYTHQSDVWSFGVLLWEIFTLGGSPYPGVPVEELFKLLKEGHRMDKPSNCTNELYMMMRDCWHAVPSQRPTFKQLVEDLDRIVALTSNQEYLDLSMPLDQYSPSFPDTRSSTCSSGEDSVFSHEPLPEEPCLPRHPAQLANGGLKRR

`C=CC(=O)Nc1ccc(-c2nn3ncnc(N)c3c2-c2ccc(C(=O)NCC)c(OC)c2)cc1` [Compound 60, 4-(6-(4-acrylamidophenyl)-4-aminopyrazolo[5,1-f] [1,2,4]triazin-5-yl)-N-ethyl-2-methoxybenzamide]: the IC50 in assay [1] (Homo sapiens, SNU-16, 72 h) was not above 10 nM; in assay [3], 5 to 10 nM. Besides, the “Selectivity FGFR3/FGFR2” value in assay [2] is “A (Selectivity of FGFR3/FGFR2 less than 150 but greater than or equal to 100)”. For the same compound, in assay [4], the “Selectivity FGFR1/FGFR2” value is “A+ (Selectivity of FGFR1/FGFR2 greater or equal to 500)”.

Take `C=CC(=O)Nc1ccc(-c2c(-c3ccc(C(=O)NC4CC4(F)F)c(OC)c3)c3c(N)ncc(C#N)c3n2C)cc1` (stereo not drawn) [Compound 167, 4-(2-(4-acrylamidophenyl)-4-amino-7-cyano-1-methyl-1H-pyrrolo[3,2-c]pyridin-3-yl)-N-(2,2-difluorocyclopropyl)-2-methoxybenzamide]: the IC50 in assay [1] (Homo sapiens, SNU-16, 72 h) is not above 10 nM; in assay [3], less than 5 nM. Also, the “Selectivity FGFR3/FGFR2” value in assay [2] was “B (Selectivity of FGFR3/FGFR2 less than 100 but greater than or equal to 25)”. Besides, in assay [4], the “Selectivity FGFR1/FGFR2” value is on record as “A (Selectivity of FGFR1/FGFR2 less than 500 but greater than or equal to 300)”.

Take `C=CC(=O)Nc1ccc(-c2nn3ncnc(N)c3c2-c2ccc(C(=O)NCC(F)F)c(OC)c2)cc1` [Compound 196, 4-(6-(4-acrylamidophenyl)-4-aminopyrazolo[5,1-f][1,2,4]triazin-5-yl)-N-(2,2-difluoroethyl)-2-methoxybenzamide]: the IC50 in assay [1] (Homo sapiens, SNU-16, 72 h) was not above 10 nM; in assay [3] it was less than 5 nM. Further, in assay [2], the “Selectivity FGFR3/FGFR2” value is given as “A+ (Selectivity of FGFR3/FGFR2 greater or equal to 150)”. The “Selectivity FGFR1/FGFR2” value in assay [4] is “A (Selectivity of FGFR1/FGFR2 less than 500 but greater than or equal to 300)”.

Regarding `C=C(F)C(=O)Nc1ccc(-c2nn3ncnc(N)c3c2-c2ccc(C(=O)NC3CC(F)(F)C3)c(OC)c2)c(F)c1` [Compound 234], the IC50 was not above 10 nM in assay [1] (Homo sapiens, SNU-16, 72 h) and less than 5 nM in assay [3]. The “Selectivity FGFR3/FGFR2” value in assay [2] is listed as “A+ (Selectivity of FGFR3/FGFR2 greater or equal to 150)”. Besides, the “Selectivity FGFR1/FGFR2” value in assay [4] is on record as “A+ (Selectivity of FGFR1/FGFR2 greater or equal to 500)”.

Turning to `C=CC(=O)Nc1ccc(-n2nc3c(=O)[nH]nc(N)c3c2-c2ccc(Oc3cccc(C)n3)c(OC)c2)cc1` [Compound 115], the IC50 in assay [1] (Homo sapiens, SNU-16, 72 h) fell in the range of 10 to 50 nM; in assay [3], 5 to 10 nM. In addition, the “Selectivity FGFR3/FGFR2” value in assay [2] is “A+ (Selectivity of FGFR3/FGFR2 greater or equal to 150)”. Moreover, the “Selectivity FGFR1/FGFR2” value in assay [4] is “C (Selectivity of FGFR1/FGFR2 less than 200 but greater than or equal to 100)”.

As for `C=C(F)C(=O)Nc1ccc(-c2nn3ncnc(N)c3c2-c2ccc(C(=O)NC34CC(C3)C4)c(OC)c2)c(F)c1` [Compound 357, 4-(4-amino-6-(2-fluoro-4-(2-fluoroacryl amido)phenyl)pyrazolo[5,1-f][1,2,4]triazin-5-yl)-N-(bicyclo[1.1.1]pentan-1-yl)-2-methoxybenzamide], the IC50 in assay [1] (Homo sapiens, SNU-16, 72 h) is not above 10 nM; in assay [3] it was less than 5 nM. Moreover, the “Selectivity FGFR3/FGFR2” value in assay [2] is listed as “A+ (Selectivity of FGFR3/FGFR2 greater or equal to 150)”. Besides, the “Selectivity FGFR1/FGFR2” value in assay [4] was “A (Selectivity of FGFR1/FGFR2 less than 500 but greater than or equal to 300)”.

As to `C=C(F)C(=O)Nc1ccc(-c2nn3ncnc(N)c3c2-c2ccc(C(=O)NC34CC(F)(C3)C4)c(OC)c2)c(F)c1` [Compound 427, 4-(4-amino-6-(2-fluoro-4-(2-fluoroacryl-amido)phenyl)pyrazolo[5,1-f][1,2,4]triazin-5-yl)-N-(3-fluorobicyclo [1.1.1]pentan-1-yl)-2-methoxybenzamide], the IC50 in assay [1] (Homo sapiens, SNU-16, 72 h) is not above 10 nM; in assay [3], less than 5 nM. Also, the “Selectivity FGFR3/FGFR2” value in assay [2] is recorded as “A (Selectivity of FGFR3/FGFR2 less than 150 but greater than or equal to 100)”. Besides, in assay [4], the “Selectivity FGFR1/FGFR2” value is listed as “A+ (Selectivity of FGFR1/FGFR2 greater or equal to 500)”.

With `[2H]C([2H])([2H])Oc1cc(-c2c(-c3ccc(NC(=O)C(=C)F)cc3)nn3ncnc(N)c23)ccc1C(=O)NCC1(F)CC1` [Compound 372, 4-(4-amino-6-(4-(2-fluoroacrylamido)phe-nyl)pyrazolo[5,1-f][1,2,4]triazin-5-yl)-N-((1-fluorocyclo-propyl)methyl)-2-(methoxy-d3)benzamide], the IC50 in assay [1] (Homo sapiens, SNU-16, 72 h) was not above 10 nM; in assay [3] it was less than 5 nM. Moreover, the “Selectivity FGFR3/FGFR2” value in assay [2] is recorded as “A+ (Selectivity of FGFR3/FGFR2 greater or equal to 150)”. Moreover, the “Selectivity FGFR1/FGFR2” value in assay [4] is listed as “A+ (Selectivity of FGFR1/FGFR2 greater or equal to 500)”.

Consider `C=CC(=O)Nc1ccc(-c2nn3ncnc(N)c3c2-c2ccc(C(=O)NC3(C)CC3)c(OC)c2)cc1` [Compound 162, 4-(6-(4-acrylamidophenyl)-4-aminopyrazolo[5,1-f] [1,2,4]triazin-5-yl)-2-methoxy-N-(1-methylcyclopropyl)benzamide], for which the IC50 was not above 10 nM in assay [1] (Homo sapiens, SNU-16, 72 h) and less than 5 nM in assay [3]. The “Selectivity FGFR3/FGFR2” value in assay [2] is “A+ (Selectivity of FGFR3/FGFR2 greater or equal to 150)”. For the same compound, the “Selectivity FGFR1/FGFR2” value in assay [4] is on record as “A+ (Selectivity of FGFR1/FGFR2 greater or equal to 500)”.

As to `C=CC(=O)Nc1ccc(-c2c(-c3ccc(C(=O)NCC)c(OC)c3)c3c(N)ncc(C#N)c3n2C)cc1` [Compound 107, 4-(2-(4-acrylamidophenyl)-4-amino-7-cyano-1-methyl-1H-pyrrolo[3,2-c]pyridin-3-yl)-N-ethyl-2-methoxybenzamide], the IC50 is not above 10 nM in assay [1] (Homo sapiens, SNU-16, 72 h) and less than 5 nM in assay [3]. The “Selectivity FGFR3/FGFR2” value in assay [2] was “A (Selectivity of FGFR3/FGFR2 less than 150 but greater than or equal to 100)”. For the same compound, the “Selectivity FGFR1/FGFR2” value in assay [4] is on record as “A+ (Selectivity of FGFR1/FGFR2 greater or equal to 500)”.

Regarding `C=C(F)C(=O)Nc1ccc(-c2nn3ncnc(N)c3c2-c2ccc(C(=O)NC3CC(F)C3)c(OC)c2)c(F)c1` (stereo not drawn) [Compound 249], the IC50 in assay [1] (Homo sapiens, SNU-16, 72 h) was not above 10 nM; in assay [3], less than 5 nM. Also, the “Selectivity FGFR3/FGFR2” value in assay [2] is reported as “A+ (Selectivity of FGFR3/FGFR2 greater or equal to 150)”. Further, the “Selectivity FGFR1/FGFR2” value in assay [4] was “C (Selectivity of FGFR1/FGFR2 less than 200 but greater than or equal to 100)”.

For the compound `C=C(F)C(=O)Nc1ccc(-c2nn3ncnc(N)c3c2-c2ccc(Oc3cccc(C)n3)c(F)c2)c(F)c1` [Compound 438, N-(4-(4-amino-5-(3-fluoro-4-((6-methylpyridin-2-yl)oxy)phenyl)pyrazolo [5,1-f][1,2,4]triazin-6-yl)-3-fluorophenyl)-2-fluoroacrylamide], the half-inhibitory concentration (IC50) is not above 10 nM in assay [1] (Homo sapiens, SNU-16, 72 h) and less than 5 nM in assay [3]. Also, in assay [2], the “Selectivity FGFR3/FGFR2” value is reported as “A+ (Selectivity of FGFR3/FGFR2 greater or equal to 150)”. The “Selectivity FGFR1/FGFR2” value in assay [4] is reported as “A+ (Selectivity of FGFR1/FGFR2 greater or equal to 500)”.

Turning to `C=CC(=O)Nc1ccc(-c2nn3ncnc(N)c3c2-c2ccc(C(=O)NC3CCC3)c(OC)c2)cc1` [Compound 26, 4-(6-(4-acrylamidophenyl)-4-aminopyrazolo[5,1-f][1,2,4]triazin-5-yl)-N-cyclobutyl-2-methoxybenzamide], the IC50 is not above 10 nM in assay [1] (Homo sapiens, SNU-16, 72 h) and less than 5 nM in assay [3]. For the same compound, the “Selectivity FGFR3/FGFR2” value in assay [2] is reported as “B (Selectivity of FGFR3/FGFR2 less than 100 but greater than or equal to 25)”. For the same compound, the “Selectivity FGFR1/FGFR2” value in assay [4] is recorded as “A (Selectivity of FGFR1/FGFR2 less than 500 but greater than or equal to 300)”.

On to `C=C(F)C(=O)Nc1ccc(-c2nn3ncnc(N)c3c2-c2ccc(C(=O)NCC(C)C)cc2)cc1` [Compound 48, 4-(4-amino-6-(4-(2-fluoroacrylamido)phe-nyl)pyrazolo[5,1-f] [1,2,4]triazin-5-yl)-N-isobutylbenzamide], for which the IC50 in assay [1] (72 h, read-out: Cell SNU-16 IC50) was not above 10 nM; in assay [3], less than 5 nM. The “Selectivity FGFR3/FGFR2” value in assay [2] is reported as “B (Selectivity of FGFR3/FGFR2 less than 100 but greater than or equal to 25)”. The “Selectivity FGFR1/FGFR2” value in assay [4] is reported as “A+ (Selectivity of FGFR1/FGFR2 greater or equal to 500)”.

On to `C=C(F)C(=O)Nc1ccc(-c2nn3ncnc(N)c3c2-c2ccc(C(=O)NC3(C(F)(F)F)CC3)c(OC)c2)c(F)c1` [Compound 356], for which the IC50 in assay [1] (Homo sapiens, SNU-16, 72 h) was not above 10 nM; in assay [3], less than 5 nM. The “Selectivity FGFR3/FGFR2” value in assay [2] is given as “A (Selectivity of FGFR3/FGFR2 less than 150 but greater than or equal to 100)”. Besides, the “Selectivity FGFR1/FGFR2” value in assay [4] is “A (Selectivity of FGFR1/FGFR2 less than 500 but greater than or equal to 300)”.

The record behind these values is US20240383905A1, “FGFR INHIBITORS AND METHODS OF USE THEREOF” (3H PHARMACEUTICALS CO., LTD., priority 2021, published 2024).
